Reference: ChEMBL document CHEMBL4699446, “Hydroxy-neo-Clerodanes and 5,10-seco-neo-Clerodanes from Salvia decora” (J Nat Prod, 2020)
Active and inactive are the calls of the source. No cut-off for these calls is given here.

Assays:
[1] = target: T1, Tyrosine-protein phosphatase non-receptor type 1 (Homo sapiens) (UniProt P18031); test: Inhibition of wild type human HIS6-tagged PTP1B (1 to 400 residues) expressed in Escherichia coli Rosetta (DE3) pLysS cells using p-NPP substrate at 0.38 to 1 mM preincubated for 10 mins followed dby substrate addition and measured after 20 mins relative to control; conditions: dose mM 0.38-1, time 30.0 min
T1 sequence (whole entry): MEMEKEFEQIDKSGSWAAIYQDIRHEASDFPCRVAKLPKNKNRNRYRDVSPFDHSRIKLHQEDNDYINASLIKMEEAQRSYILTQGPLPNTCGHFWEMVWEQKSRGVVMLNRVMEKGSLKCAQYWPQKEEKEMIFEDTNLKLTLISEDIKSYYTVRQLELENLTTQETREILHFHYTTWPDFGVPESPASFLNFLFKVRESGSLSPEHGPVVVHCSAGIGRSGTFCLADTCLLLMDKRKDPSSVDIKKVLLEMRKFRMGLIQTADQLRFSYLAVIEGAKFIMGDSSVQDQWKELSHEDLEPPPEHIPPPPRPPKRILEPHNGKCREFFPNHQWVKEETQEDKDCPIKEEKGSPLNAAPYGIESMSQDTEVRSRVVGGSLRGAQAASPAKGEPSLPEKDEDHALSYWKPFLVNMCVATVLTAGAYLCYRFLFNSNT

[2] = target: T1, Tyrosine-protein phosphatase non-receptor type 1 (Homo sapiens); test: Binding affinity to human PTP1B (1 to 405 residues) at 1:2 protein-ligand ratio
[3] = Inhibition of Saccharomyces cerevisiae alpha-glucosidase using pNPG as substrate preincubated for 10 mins followed by substrate addition after 20 mins
[4] = target: T1, Tyrosine-protein phosphatase non-receptor type 1 (Homo sapiens)
Description: Binding affinity to wild type human HIS6-tagged PTP1B (1 to 400 residues) expressed in Escherichia coli Rosetta (DE3) pLysS by tryptophan-tyrosine residues based spectrometric method

Row | SMILES | inhibition [1] | Ka [2] | IC50 [3] [µM] | Ka [4]
1 | CC(=O)O[C@H]1CC2=C(/C=C\C=C\[C@@]3(C)C[C@H](c4ccoc4)OC(=O)[C@@H]13)C(=O)OC2 | Active |  |  | 
2 | CC(C)[C@@H](CC[C@@H](C)[C@H]1CC[C@H]2[C@@H]3[C@H](O)C[C@H]4C[C@@H](NCCCNCCCCNCCCN)CC[C@]4(C)[C@H]3CC[C@]12C)OS(=O)(=O)O |  | 3.3 10^5/M |  | 
3 | C[C@H]1[C@H](C)CC[C@]2(C(=O)O)CC[C@]3(C)C(=CC[C@@H]4[C@@]5(C)CC[C@H](O)C(C)(C)[C@@H]5CC[C@]43C)[C@H]12 [URSOLIC ACID] | 50% |  | 7.5 | 1.3 10^4/M
